Experimental data published in patent publication US8748426B2, “Inhibitors of diacylglycerol acyl transferase” (Piramal Enterprises Limited, priority 2009, dated 2014).

molecular target: T1, hDGAT1 (Homo sapiens, UniProt O75907); assay: In-vitro DGAT1 assay (14C oleoyl CoA, hDGAT1 microsomes from Sf9 cells); details: at 1 μM
T1 sequence (O75907 1-488): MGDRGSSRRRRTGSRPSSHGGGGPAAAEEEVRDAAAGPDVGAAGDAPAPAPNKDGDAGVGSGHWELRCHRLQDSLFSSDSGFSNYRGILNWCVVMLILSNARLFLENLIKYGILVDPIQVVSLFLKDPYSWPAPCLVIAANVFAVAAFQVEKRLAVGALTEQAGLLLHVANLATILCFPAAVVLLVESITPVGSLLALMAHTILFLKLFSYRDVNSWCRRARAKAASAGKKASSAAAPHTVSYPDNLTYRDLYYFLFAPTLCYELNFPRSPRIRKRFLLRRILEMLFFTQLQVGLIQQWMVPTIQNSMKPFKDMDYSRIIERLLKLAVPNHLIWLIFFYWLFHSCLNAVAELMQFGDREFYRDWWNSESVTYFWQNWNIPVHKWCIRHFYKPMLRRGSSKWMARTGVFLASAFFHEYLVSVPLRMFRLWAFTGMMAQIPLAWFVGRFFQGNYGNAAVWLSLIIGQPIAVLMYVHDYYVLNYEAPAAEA

| Compound | % Inhibition of hDGAT1 |
| --- | --- |
| COc1cc(NC(=O)c2ccc(-c3ccccc3)cc2)ccc1-c1ccc2c(c1)C(=O)N([C@H](C(=O)O)C(C)C)C2 [Example 458, (S)-2-(6-(4-Biphenyl-4-ylcarboxamido-2-methoxyphenyl)-1-oxoisoindolin-2-yl)-3-methylbutanoic acid] | ++ (>50% Inhibition) |
| 3-(1-Oxo-6-(4-(4-(trifluoromethyl)benzamido)phenyl)isoindolin-2-yl)cyclo hexanecarboxylic acid [Example 551] | ++ (>50% Inhibition) |

same assay, conditions: read-out: % Inhibition of hDGAT1

| inhibition at 1 µM [%] | Compound |
| --- | --- |
| > 50 | CC(C)[C@@H](C(=O)O)N1Cc2ccc(-c3ccc(NC(=O)c4ccc(C(C)(C)C)cc4)nc3)cc2C1=O [Example 492, (S)-2-(6-(6-(4-tert-Butylbenzamido)pyridin-3-yl)-1-oxoisoindolin-2-yl)-3-methylbutanoic acid] |
| > 50 | O=C(Nc1ccc(-c2ccc3c(c2)C(=O)N(C2(C(=O)O)CCC2)C3)cc1)c1ccc(C(F)(F)F)cc1 [Example 580, 1-(1-Oxo-6-(4-(4-(trifluoromethyl)benzamido)phenyl)isoindolin-2-yl)cyclo butane carboxylic acid] |
| > 50 | CC(C)[C@@H](C(=O)O)N1Cc2ccc(-c3ccc(NC(=O)Nc4ccccc4Cl)c(F)c3)cc2C1=O [Example 442, (S)-2-(6-(4-(3-(2-Chlorophenyl)ureido)-3-fluorophenyl)-1-oxoisoindolin-2-yl)-3-methylbutanoic acid] |
| 10 to 50 | O=C(Nc1ccc(-c2ccc3c(c2)C(=O)N(C2(C(=O)O)CCCC2)C3)cc1)Nc1cccc(C(F)(F)F)c1 [Example 343, 1-(1-Oxo-6-(4-(3-(3-(trifluoromethyl)phenyl)ureido)phenyl)isoindolin-2-yl)cyclopentanecarboxylic acid] |
| > 50 | CCCCCc1ccc(C(=O)Nc2ccc(-c3ccc4c(c3)C(=O)N(C3(C(=O)O)CCCC3)C4)cc2)cc1 [Example 537, 1-(1-Oxo-6-(4-(4-pentylbenzamido)phenyl)isoindolin-2-yl)cyclopentane carboxylic acid] |

More lines, now with the values behind:

| Compound | inhibition at 1 µM [%] |
| --- | --- |
| CC(C)[C@@H](C(=O)O)N1Cc2ccc(-c3ccc(NS(=O)(=O)c4ccc(F)c(F)c4)cc3)cc2C1=O [Example 82, (S)-2-(6-(4-(3,4-Difluorophenylsulfonamido)phenyl)-1-oxoisoindolin-2-yl)-3-methylbutanoic acid] | 10 to 50 |
| Cc1ccc(C(=O)Nc2ccc(-c3ccc4c(c3)CN([C@H](C(=O)O)C(C)C)C4=O)cc2)cc1 [Example 319, (S)-3-Methyl-2-(5-(4-(4-methylbenzamido)phenyl)-1-oxoisoindolin-2-yl)butanoic acid] | 10 to 50 |
| CC(C)[C@H](C(=O)O)N1Cc2ccc(-c3ccc(NC(=O)Nc4cccc(C(F)(F)F)c4)cc3)cc2C1=O [Example 331, (R)-3-Methyl-2-(1-oxo-6-(4-(3-(3-(trifluoromethyl)phenyl)ureido)phenyl)isoindolin-2-yl)butanoic acid] | > 50 |
| CC(C)[C@@H](C(=O)O)N1Cc2ccc(-c3ccc(NC(=S)Nc4cccc(C#N)c4)cc3)cc2C1=O [Example 70, (S)-2-(6-(4-(3-(3-Cyanophenyl)thioureido)phenyl)-1-oxoisoindolin-2-yl)-3-methylbutanoic acid] | 10 to 50 |
| CC(C)[C@@H](C(=O)O)N1Cc2ccc(-c3ccc(NC(=O)c4c(Cl)cccc4Cl)cc3)cc2C1=O [Example 130, (S)-2-(6-(4-(2,6-Dichlorobenzamido)phenyl)-1-oxoisoindolin-2-yl)-3-methyl butanoic acid] | 10 to 50 |
| CC(C)[C@@H](C(=O)O)N1Cc2ccc(-c3ccc(NS(=O)(=O)c4ccc(C(F)(F)F)cc4)cc3)cc2C1=O [Example 92, (S)-3-Methyl-2-(1-oxo-6-(4-(4-(trifluoromethyl)phenylsulfonamido)phenyl)isoindolin-2-yl)butanoic acid] | 10 to 50 |
